Measurements published in BindingDB's records for patent US11980598 (Beijing Greatway Pharmaceutical Technology Co., 2024).

Biological target: T1, 5-hydroxytryptamine receptor 2C (Homo sapiens, UniProt P28335)
T1 sequence (P28335 whole entry): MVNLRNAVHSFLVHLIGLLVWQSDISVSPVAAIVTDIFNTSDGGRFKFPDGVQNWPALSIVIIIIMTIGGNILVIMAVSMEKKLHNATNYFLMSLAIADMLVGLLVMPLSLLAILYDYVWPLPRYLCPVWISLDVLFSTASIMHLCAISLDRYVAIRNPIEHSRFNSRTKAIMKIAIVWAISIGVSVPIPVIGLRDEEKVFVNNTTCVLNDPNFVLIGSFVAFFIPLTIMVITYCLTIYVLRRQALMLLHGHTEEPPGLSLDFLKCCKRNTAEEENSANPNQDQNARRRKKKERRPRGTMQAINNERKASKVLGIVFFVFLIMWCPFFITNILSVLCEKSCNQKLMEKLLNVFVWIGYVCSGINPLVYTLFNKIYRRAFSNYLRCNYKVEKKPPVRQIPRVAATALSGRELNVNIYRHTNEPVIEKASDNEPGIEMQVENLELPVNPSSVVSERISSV
Assay: 5-HT2C Receptor Binding Test
Procedure: 50 μg of the receptor membrane protein 5-HT2C was added to all the tubes. […] All the tubes were added with 40 μL of [3H]-LSD (lysergic acid diethylamide), respectively. […] The filter paper was taken out and dried by baking, and then placed in a scintillation bottle. 1 mL of the scintillation liquid was added, and the radioactive intensity was measured by a liquid scintillation counter

Row | SMILES | IC50 [nM]
1 | COc1cc2c(CCNC(C)=O)cccc2cc1Cl [US11980598, Compound 1] | 0.77
2 | COc1cc2c(CCNC(C)=O)cccc2cc1F [US11980598, Compound 4] | 20.8
